{"source": "paper PMC10721786", "about": "“Development of a potent benzonitrile-based inhibitor of glutaminyl-peptide cyclotransferase-like protein (QPCTL) with antitumor efficacy” (Signal Transduction and Targeted Therapy, 2023)", "key": {"CD47": {"system": "CD47", "assay": "Overall cell surface CD47 (hCD47-B6H12 binding) in HEK293T and Raji cells", "assay_type": "cell-based, human", "settings": "100 nM, 48 h", "procedure": "(§1) Binding to cell surface CD47 was assessed by staining cells with fluorochrome-labeled antibodies clone CC2C6 (BioLegend, Cat. # 323102) and B6H12 (Abcam, Cat. # ab134485) to human CD47 at a dilution of 1:100 in PBS containing 1% FBS (FACS buffer) for 30 min on ice, while protected from light. SIRPα binding to CD47 was assessed by incubating cells with PE labeled recombinant human SIRPα/ CD172α Protein, Fc tag (ACRO Biosystems, Cat. # SIA-HP252) or PE labeled mouse SIRPα Protein, His tag (ACRO Biosystems, Cat. # SIA-MP2H6) for 1 hour on ice, while protected from light."}, "senescent cells": {"system": "senescent cells", "assay": "Efferocytosis of apoptotic Jurkat cells by macrophages after co-culture with senescent cells", "assay_type": "cell-based, mouse", "settings": "pretreatment, 4 days, Fig. S7", "procedure": "Apoptotic corpse generation. Jurkat cells were cultured in a T25 flask and apoptotic corpses were inducted by exposure to 5 μM camptothecin (Tsbiochem, CAT. # t2764) for 4 hours. Apoptosis induction was confirmed by apoptoic kit (Beyotime Biotechnology, Cat. # C1062M) through flow cytometry.\nSenescence induction. B16F10 Cells were plated (96-well plate: 2000 cells/well) and rested over night before exposure to 10 μM cisplatin (APExBIO, Cat. # A8321). Cisplatin exposed cells were subsequently cultured for 4 or 7 days (without media change) and senescent cells were evaluated by β-Galactosidase staining using a SA-β-Gal staining Kit (Solarbio, Cat. # G1580-100T) according to the manufacturer’s instructions. Senescent cells were identified as blue stained cells under light microscopy.\nEfferocytosis after co-culture. Senescent cells were plated in 96-well plates (2000 cells/well) and inducted as described before. QPCTL inhibitors were added every other day to the cells. For co-culture conditions BMDMs were added to the senescent cells. Senescent cells and macrophages were co-cultured for 16 hours. […] Following removal of unbound corpses by washing three times with PBS, macrophages were marked with APC-labeled anti-F4/80, and the co-culture was analyzed by flow cytometry. Efferocytosis was calculated as the percentage of CFSE^+F4/80^+ cells among F4/80^+ cells."}, "pGlu-CD47 [1]": {"system": "pGlu-CD47", "assay": "Flow cytometry of pGlu-CD47 (hCD47-CC2C6 binding) in HEK293T cells", "assay_type": "cell-based, human", "procedure": "as §1"}, "BMDM cells": {"system": "BMDM cells", "assay": "Cell viability and phagocytosis ability of BMDM", "assay_type": "cell-based, mouse"}, "[2]": {"assay": "In vivo toxicity in mice (blood routine, serum biochemistry, HE histology)", "set-up": "species or system mouse", "procedure": "Briefly, male mice were implanted subcutaneously with 5 x 10^5 B16F10 cells resuspended in 100 μL of DMEM on Day 0. Anti-PD-1 antibody or mouse IgG2a isotype control was dosed at 80 µg per mouse intraperitoneally starting on day 6 after tumor implantation, followed by a once-a-week regimen. QPCTL inhibitors was intraperitoneally administered at 25 mg/kg once a day since day 6. Tumors were measured every three days, and mice were sacrificed on day 15. Mouse organs and blood were collected for blood routine, blood serum biochemistry examination and histological evaluation.\nBlood routine and blood serum biochemistry examination of mice. Whole blood was collected in EDTA anticoagulant tubes for blood routine test and heparin sodium tubes for blood serum biochemistry examination. Tubes were gently inverted several times to thoroughly mix the blood and anticoagulant. The routine blood test was tested by Automatic Hematology Analyzer (TEK8500H4-0502, TECOM SCIENCE, China). Blood serum was obtained by centrifugation at 4℃ at 4000 rpm for 10 minutes. Serum creatinine (CR) was determined by CR kit (PUREBIO, Cat. # CR01), urea nitrogen (BUN) was determined by BUN kit (PUREBIO, Cat. # URE01), alanine aminotransferase (ALT) was determined by ALT kit (PUREBIO, Cat. # ALT01) and […] was determined by AST kit (PUREBIO, Cat. # AST01) according to the manufacturer’s instructions. […]"}, "pGlu-CD47 [3]": {"system": "pGlu-CD47", "assay": "Flow cytometry of pGlu-CD47 (hCD47-CC2C6 binding) in Raji cells", "assay_type": "cell-based, human", "settings": "100 nM, 48 h", "procedure": "as §1"}, "B16F10 cells": {"system": "B16F10 cells", "assay": "Tumor challenge: B16F10 tumors in C57BL/6 mice", "assay_type": "in vivo", "settings": "B16F10 in C57BL/6 mice, anti-CD3 antibody 200 µg/mouse, QP5038 25 mg/kg daily", "procedure": "C57BL/6 mice were obtained from Shanghai Slaccas Laboratory Animal Co., Ltd.. Male mice were implanted subcutaneously with 1 x 10^^6 B16F10 cells resuspended in 100μL of DMEM on Day 0. Anti-PD-1 (Clone RMP1-14, BioXCell, Cat. # BE0146) or mouse IgG2a isotype control (Clone 2A3, BioXCell, Cat. # BE0089) was dosed at 80 µg per mouse intraperitoneally starting on day 12 after tumor implantation, followed by a once-a-week regimen. QPCTL inhibitor was intraperitoneally administered at 25 mg/kg once a day. Tumors were measured daily, and mice were sacrificed 24 days after tumor challenge. Tumor volumes were measured in two dimensions (length and width) and the volume was calculated using the formula, tumor size (mm^3) = (length × width^2) × 0.5.\nBriefly, male mice were implanted subcutaneously with 5 x 10^5 B16F10 cells resuspended in 100 μL of DMEM on Day 0. Anti-PD-1 antibody or mouse IgG2a isotype control was dosed at 80 µg per mouse intraperitoneally starting on day 6 after tumor implantation, followed by a once-a-week regimen. QPCTL inhibitors was intraperitoneally administered at 25 mg/kg once a day since day 6. Tumors were measured every three days, and mice were sacrificed on day 15. […]\nTumor challenge with T cell depletion. […] Animal weights and tumor volumes were measured twice weekly throughout the study. […] Data were acquired on flow cytometry analyzer and analyzed using Flowjo software."}}, "data": [{"compound": "Cn1cncc1C1CCN(c2c(C#N)cccc2-c2ccc(F)nc2)CC1", "note": "[QP5038]", "values": [{"measurement": "overall cell surface levels of CD47", "setting": "CD47", "result": "did not alter"}, {"measurement": "inhibitory effect of senescent cells on macrophage-mediated phagocytosis of apoptotic cells", "setting": "senescent cells", "result": "could block the inhibitory effect"}, {"measurement": "inhibitory effect on CD47 pyroglutamation compared to SEN177 and PQ912", "setting": "pGlu-CD47 [1]; 100 nM, 48 h", "result": "superior inhibitory effects"}, {"measurement": "IC50", "setting": "pGlu-CD47 [1]; Homo sapiens, HEK-293T, treatment 48 h, read-out: IC50, dose-dependent inhibition of pGlu-CD47", "result": "3.3 ± 0.5", "unit": "nM"}, {"measurement": "cell viability of macrophages", "setting": "BMDM cells; Fig. S8a", "result": "did not attenuate"}, {"measurement": "phagocytotic ability of macrophages", "setting": "BMDM cells; apoptotic Jurkat cells, Fig. S8b", "result": "did not attenuate"}, {"measurement": "organ damage (HE staining)", "setting": "[2]; C57B/L6 mice, 25 mg/kg daily for 15 days, Fig. S10", "result": "would not cause"}, {"measurement": "abnormal blood composition", "setting": "[2]; mice, 25 mg/kg daily, Fig. S11", "result": "would not cause"}, {"measurement": "inhibitory effect on CD47 pyroglutamation compared to SEN177 and PQ912", "setting": "pGlu-CD47 [3]", "result": "superior inhibitory effects"}, {"measurement": "enhancement of anti-PD-1 antibody-mediated tumor inhibition under T cell depletion", "setting": "B16F10 cells", "result": "blocked the enhancement"}]}]}
